According to ChEMBL document CHEMBL1201862, “PubChem BioAssay data set” (2004):
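96-well plates; 48 h exposure; 5 concentrations. Endpoints by linear interpolation between flanking doses. Not reached: highest tested concentration assigned. GI50: concentration for 50% inhibition of growth.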 Activity calls are given as the source filed them. No stated cut-off is given here; in the data, active = GI50 up to about 1.1 µM and inactive = higher.

Key:
Assay in all cases: DTP human tumour cell line panel, 48 h
[1] = tested on: A498
[2] = tested on: CCRF-CEM
[3] = tested on: HCT-116
[4] = tested on: HL-60
[5] = tested on: HT-29
[6] = tested on: LOX IMVI
[7] = tested on: MOLT-4
[8] = tested on: NCI-H23
[9] = tested on: NCI-H460
[10] = tested on: NCI/ADR-RES
[11] = tested on: OVCAR-5
[12] = tested on: SK-MEL-28
[13] = tested on: SK-MEL-2
[14] = tested on: SK-MEL-5
[15] = tested on: SNB-75
[16] = tested on: SW-620
[17] = tested on: T47D
[18] = tested on: TK-10
[19] = tested on: UACC-62

| Structure (SMILES) | GI50 [1] | GI50 [2] | GI50 [3] | GI50 [4] | GI50 [5] | GI50 [6] | GI50 [7] | GI50 [8] | GI50 [9] | GI50 [10] | GI50 [11] | GI50 [12] | GI50 [13] | GI50 [14] | GI50 [15] | GI50 [16] | GI50 [17] | GI50 [18] | GI50 [19] |
| --- | --- | --- | --- | --- | --- | --- | --- | --- | --- | --- | --- | --- | --- | --- | --- | --- | --- | --- | --- |
| COC(=O)c1ccc2c(O)c(O)ccc2c1 | 21.3 µM (inactive) | 2.69 µM (inactive) | 16.7 µM (inactive) | 2.02 µM (inactive) | 17.1 µM (inactive) | 2.87 µM (inactive) | 4.81 µM (inactive) | 5.28 µM (inactive) | 19.9 µM (inactive) | 20.1 µM (inactive) | 19.2 µM (inactive) | 16.3 µM (inactive) | 1.18 µM (inactive) | 4.45 µM (inactive) | 12.8 µM (inactive) | 12.1 µM (inactive) | 19.5 µM (inactive) | 21.5 µM (inactive) | 15.9 µM (inactive) |
| CC(Oc1ccccc1)C(=O)NN (stereo not drawn) | > 100 µM (inactive) | > 100 µM (inactive) | > 100 µM (inactive) | > 100 µM (inactive) | > 100 µM (inactive) | > 100 µM (inactive) | > 100 µM (inactive) | > 100 µM (inactive) | > 100 µM (inactive) | > 100 µM (inactive) | > 100 µM (inactive) | > 100 µM (inactive) | > 100 µM (inactive) | > 100 µM (inactive) | > 100 µM (inactive) | > 100 µM (inactive) | > 100 µM (inactive) | > 100 µM (inactive) | > 100 µM (inactive) |
| CN(C(=O)Cc1cc(Cl)c(Cl)cc1N=C=S)[C@H]1CCCC[C@@H]1N1CCCC1 | 13.5 µM (inactive) | 2.07 µM (inactive) | 8.49 µM (inactive) | 10.1 µM (inactive) | 5.94 µM (inactive) | 5.9 µM (inactive) | 3 µM (inactive) | 15.2 µM (inactive) | 7.36 µM (inactive) | 17.8 µM (inactive) | 16.9 µM (inactive) | 1.39 µM (inactive) | 15.3 µM (inactive) | 14 µM (inactive) | 14.6 µM (inactive) | 5.47 µM (inactive) | 16.1 µM (inactive) | 10.1 µM (inactive) | 16.4 µM (inactive) |
| C/C=C(\C)c1cc(=O)c2c(C)cc3c(c2o1)C(=O)c1c(O)c(C2CC(C)(N(C)C)C(OC(C)=O)C(C)O2)cc(C2CC(N(C)C)C(O)C(C)O2)c1C3=O (stereo not drawn) | 1.48 µM (inactive) | 3.12 µM (inactive) | 0.185 µM (active) | 0.438 µM (active) | 0.324 µM (active) | 0.731 µM (active) | 0.372 µM (active) | 0.971 µM (active) | 0.00982 µM (active) | 1.41 µM (inactive) | 1.25 µM (inactive) | 1.91 µM (inactive) | 1.22 µM (inactive) | 0.625 µM (active) | 1.64 µM (inactive) | 0.532 µM (active) | 1.53 µM (inactive) | 1.06 µM (active) | 1.12 µM (inactive) |
| C#CC(O)/C=C/CCCCCCC#CC/C=C\CC#CCCCCCCCCC(O)C#C (stereo not drawn) | 12.6 µM (inactive) | 0.0836 µM (active) | 2.28 µM (inactive) | 1.74 µM (inactive) | 2.74 µM (inactive) | < 0.01 µM (active) | 0.27 µM (active) | 1.02 µM (active) | 17.1 µM (inactive) | 3.39 µM (inactive) | 12.8 µM (inactive) | 3.42 µM (inactive) | 2.59 µM (inactive) | 2.68 µM (inactive) | 9.1 µM (inactive) | 3.5 µM (inactive) | 10.5 µM (inactive) | 13.1 µM (inactive) | 9.08 µM (inactive) |
| COc1cc2nc(-c3cccs3)nc(N3CCN(c4ccccc4C(F)(F)F)CC3)c2cc1OC | > 100 µM (inactive) | 7.23 µM (inactive) | > 100 µM (inactive) | 3.87 µM (inactive) | > 100 µM (inactive) | > 100 µM (inactive) | 16.7 µM (inactive) | > 100 µM (inactive) | > 100 µM (inactive) | > 100 µM (inactive) | > 100 µM (inactive) | > 100 µM (inactive) | > 100 µM (inactive) | 33.3 µM (inactive) | > 100 µM (inactive) | > 100 µM (inactive) | > 100 µM (inactive) | 45 µM (inactive) | 76.7 µM (inactive) |
| CC(=O)N(C)c1cc(NCc2ccccc2)ccc1OCc1ccccc1 | 16.3 µM (inactive) | 23.6 µM (inactive) | 31.8 µM (inactive) | 26 µM (inactive) | 20.6 µM (inactive) | 20 µM (inactive) | 25.8 µM (inactive) | 24.4 µM (inactive) | 17.9 µM (inactive) | 20.2 µM (inactive) | 19.3 µM (inactive) | 18.9 µM (inactive) | 16.9 µM (inactive) | 18.3 µM (inactive) | 22.2 µM (inactive) | 24.9 µM (inactive) | 36.6 µM (inactive) | 17.7 µM (inactive) | 16.4 µM (inactive) |
